Like-named read-outs stand apart in the source and are kept apart here.
Legend:
Assay in all cases: KiNativ assay
Format in all cases: binding
Conditions in all cases: H929 live cell
HPK1 = HPK1 (Homo sapiens (Human), UniProt Q92918)
Procedure: (§1) Biochemical IC50s of the compounds of the present disclosure against various kinases were measured in a KiNativ assay. Compounds were screened in duplicate at 10 μM in H929 live cell. IC50 was measured via Mass spectroscopy (MS).

SNRK = SNRK (Homo sapiens (Human), UniProt Q9NRH2)
SNRK, sequence (Q9NRH2 whole entry): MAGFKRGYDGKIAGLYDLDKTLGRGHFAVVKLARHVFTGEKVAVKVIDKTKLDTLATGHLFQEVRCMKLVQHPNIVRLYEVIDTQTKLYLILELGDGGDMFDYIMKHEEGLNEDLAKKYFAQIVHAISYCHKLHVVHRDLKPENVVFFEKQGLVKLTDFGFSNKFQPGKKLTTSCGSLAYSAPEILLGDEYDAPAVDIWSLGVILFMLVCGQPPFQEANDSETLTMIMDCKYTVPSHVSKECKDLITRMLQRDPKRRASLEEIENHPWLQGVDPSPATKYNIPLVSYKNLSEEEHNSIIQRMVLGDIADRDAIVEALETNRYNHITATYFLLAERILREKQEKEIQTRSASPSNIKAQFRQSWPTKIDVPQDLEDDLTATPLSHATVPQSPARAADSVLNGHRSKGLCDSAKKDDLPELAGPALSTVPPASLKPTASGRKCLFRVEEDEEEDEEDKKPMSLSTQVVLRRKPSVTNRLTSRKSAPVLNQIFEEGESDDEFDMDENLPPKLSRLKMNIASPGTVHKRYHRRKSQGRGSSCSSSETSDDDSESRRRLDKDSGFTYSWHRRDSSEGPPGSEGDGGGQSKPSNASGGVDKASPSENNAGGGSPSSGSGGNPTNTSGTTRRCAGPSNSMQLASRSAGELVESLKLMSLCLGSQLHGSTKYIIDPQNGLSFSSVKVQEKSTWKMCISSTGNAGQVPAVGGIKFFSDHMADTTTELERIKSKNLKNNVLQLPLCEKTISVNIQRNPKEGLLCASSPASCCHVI
Procedure: as §1

CK1a = CK1a (Homo sapiens (Human), UniProt P48729)
Procedure: as §1

PKD2 = PKD2 (Homo sapiens (Human), UniProt Q9BZL6)
PKD2, sequence (Q9BZL6 whole entry): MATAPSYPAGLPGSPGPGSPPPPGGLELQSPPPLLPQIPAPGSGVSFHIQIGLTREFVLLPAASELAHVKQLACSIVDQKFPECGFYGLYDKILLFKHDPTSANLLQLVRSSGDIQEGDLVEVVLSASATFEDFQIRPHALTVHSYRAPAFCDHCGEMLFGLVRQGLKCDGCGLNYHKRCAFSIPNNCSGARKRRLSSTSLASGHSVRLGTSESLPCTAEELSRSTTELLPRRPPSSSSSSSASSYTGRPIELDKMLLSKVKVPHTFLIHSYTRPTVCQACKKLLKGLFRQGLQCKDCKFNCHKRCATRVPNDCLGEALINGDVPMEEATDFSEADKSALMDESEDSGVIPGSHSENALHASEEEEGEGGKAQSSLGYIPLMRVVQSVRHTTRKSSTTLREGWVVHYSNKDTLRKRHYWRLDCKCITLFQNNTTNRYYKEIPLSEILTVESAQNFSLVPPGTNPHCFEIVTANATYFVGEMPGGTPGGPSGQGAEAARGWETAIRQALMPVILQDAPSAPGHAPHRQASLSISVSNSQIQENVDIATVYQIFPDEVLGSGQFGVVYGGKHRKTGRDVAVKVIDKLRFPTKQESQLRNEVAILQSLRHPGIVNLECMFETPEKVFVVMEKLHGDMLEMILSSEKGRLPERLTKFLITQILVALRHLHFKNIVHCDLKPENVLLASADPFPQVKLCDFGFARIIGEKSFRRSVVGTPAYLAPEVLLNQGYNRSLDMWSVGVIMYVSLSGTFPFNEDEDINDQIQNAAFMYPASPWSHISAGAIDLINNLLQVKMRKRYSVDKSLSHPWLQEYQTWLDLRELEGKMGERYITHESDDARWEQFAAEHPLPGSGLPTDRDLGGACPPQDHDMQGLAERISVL
Procedure: as §1

CDK11, CDK8 = tested on: CDK11, CDK8
Procedure: as §1

RSK2 domain1 = RSK2 domain1 (Homo sapiens (Human), UniProt P51812)
Procedure: as §1

MAP2K6 = MAP2K6 (Homo sapiens (Human), UniProt P52564)
Procedure: as §1

ILK = ILK (Homo sapiens (Human), UniProt Q13418)
ILK, sequence (Q13418 whole entry): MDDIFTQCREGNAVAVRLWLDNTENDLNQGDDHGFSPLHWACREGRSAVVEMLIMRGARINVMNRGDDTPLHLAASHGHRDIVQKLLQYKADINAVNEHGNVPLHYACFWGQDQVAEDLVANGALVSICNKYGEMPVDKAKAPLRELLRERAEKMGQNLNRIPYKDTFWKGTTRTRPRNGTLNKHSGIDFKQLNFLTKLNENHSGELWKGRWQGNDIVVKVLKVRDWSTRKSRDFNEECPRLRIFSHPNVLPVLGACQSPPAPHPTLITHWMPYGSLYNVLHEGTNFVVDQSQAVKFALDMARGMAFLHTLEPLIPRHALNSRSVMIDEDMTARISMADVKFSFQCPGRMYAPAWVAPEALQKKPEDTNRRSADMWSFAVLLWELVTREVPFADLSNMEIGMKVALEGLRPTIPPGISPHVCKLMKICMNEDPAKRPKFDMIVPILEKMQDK
Procedure: as §1

MPSK1 = MPSK1 (Homo sapiens (Human), UniProt O75716)
MPSK1, sequence (O75716 whole entry): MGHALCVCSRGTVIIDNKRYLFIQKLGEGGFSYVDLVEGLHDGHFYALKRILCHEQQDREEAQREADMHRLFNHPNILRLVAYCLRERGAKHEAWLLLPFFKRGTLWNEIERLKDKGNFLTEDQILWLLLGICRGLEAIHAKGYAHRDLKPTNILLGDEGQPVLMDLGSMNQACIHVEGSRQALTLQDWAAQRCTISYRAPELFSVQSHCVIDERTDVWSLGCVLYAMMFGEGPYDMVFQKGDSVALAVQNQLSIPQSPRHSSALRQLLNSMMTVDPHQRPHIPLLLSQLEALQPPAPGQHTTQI
Procedure: as §1

NEK7 = NEK7 (Homo sapiens (Human), UniProt Q8TDX7)
Procedure: as §1

CaMK2d = CaMK2d (Homo sapiens (Human), UniProt Q13557)
Procedure: as §1

PLK1 = PLK1 (Homo sapiens (Human), UniProt P53350)
PLK1, sequence (P53350 whole entry): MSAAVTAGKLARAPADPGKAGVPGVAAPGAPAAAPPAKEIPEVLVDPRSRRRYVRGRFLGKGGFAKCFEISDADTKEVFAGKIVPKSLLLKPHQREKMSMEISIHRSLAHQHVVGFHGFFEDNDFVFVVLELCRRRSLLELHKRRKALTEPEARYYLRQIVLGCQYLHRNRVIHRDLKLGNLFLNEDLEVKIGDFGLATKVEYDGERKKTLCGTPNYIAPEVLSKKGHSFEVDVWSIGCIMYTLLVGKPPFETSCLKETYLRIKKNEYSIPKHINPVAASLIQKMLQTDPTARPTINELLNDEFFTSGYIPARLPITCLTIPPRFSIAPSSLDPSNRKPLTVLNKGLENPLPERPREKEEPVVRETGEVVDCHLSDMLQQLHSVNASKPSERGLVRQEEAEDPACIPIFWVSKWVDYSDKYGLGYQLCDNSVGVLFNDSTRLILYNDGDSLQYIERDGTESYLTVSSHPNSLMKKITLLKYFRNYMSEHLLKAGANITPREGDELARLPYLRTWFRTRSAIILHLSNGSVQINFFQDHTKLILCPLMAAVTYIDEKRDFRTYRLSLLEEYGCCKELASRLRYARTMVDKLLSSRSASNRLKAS
Procedure: as §1

EphB2 = EphB2 (Homo sapiens (Human), UniProt P29323)
Procedure: as §1

NEK4 = NEK4 (Homo sapiens (Human), UniProt P51957)
Procedure: as §1

PEK = PEK (Homo sapiens (Human), UniProt Q9NZJ5)
Procedure: as §1

MST4 = tested on: MST4
Procedure: as §1

STLK5 = STLK5 (Homo sapiens (Human), UniProt Q7RTN6)
Procedure: as §1

PRPK = PRPK (Homo sapiens (Human), UniProt Q96S44)
PRPK, sequence (Q96S44 whole entry): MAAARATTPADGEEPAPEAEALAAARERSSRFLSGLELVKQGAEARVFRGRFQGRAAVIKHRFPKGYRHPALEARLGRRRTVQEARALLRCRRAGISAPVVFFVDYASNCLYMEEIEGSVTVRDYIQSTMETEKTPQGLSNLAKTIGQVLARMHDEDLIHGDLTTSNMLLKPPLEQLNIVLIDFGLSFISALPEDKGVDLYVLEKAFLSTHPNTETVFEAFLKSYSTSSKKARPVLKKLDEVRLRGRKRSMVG
Procedure: as §1

p38d, p38g = tested on: p38d, p38g
Procedure: as §1

RSK1 domain1 = RSK1 domain1 (Homo sapiens (Human), UniProt Q15418)
Procedure: as §1

MAP2K3 = MAP2K3 (Homo sapiens (Human), UniProt P46734)
Procedure: as §1

GCN2 domain2 = GCN2 domain2 (Homo sapiens (Human), UniProt Q9P2K8)
Procedure: as §1

TLK2 = TLK2 (Homo sapiens (Human), UniProt Q86UE8)
Procedure: as §1

NuaK2 = NuaK2 (Homo sapiens (Human), UniProt Q9H093)
NuaK2, sequence (Q9H093 whole entry): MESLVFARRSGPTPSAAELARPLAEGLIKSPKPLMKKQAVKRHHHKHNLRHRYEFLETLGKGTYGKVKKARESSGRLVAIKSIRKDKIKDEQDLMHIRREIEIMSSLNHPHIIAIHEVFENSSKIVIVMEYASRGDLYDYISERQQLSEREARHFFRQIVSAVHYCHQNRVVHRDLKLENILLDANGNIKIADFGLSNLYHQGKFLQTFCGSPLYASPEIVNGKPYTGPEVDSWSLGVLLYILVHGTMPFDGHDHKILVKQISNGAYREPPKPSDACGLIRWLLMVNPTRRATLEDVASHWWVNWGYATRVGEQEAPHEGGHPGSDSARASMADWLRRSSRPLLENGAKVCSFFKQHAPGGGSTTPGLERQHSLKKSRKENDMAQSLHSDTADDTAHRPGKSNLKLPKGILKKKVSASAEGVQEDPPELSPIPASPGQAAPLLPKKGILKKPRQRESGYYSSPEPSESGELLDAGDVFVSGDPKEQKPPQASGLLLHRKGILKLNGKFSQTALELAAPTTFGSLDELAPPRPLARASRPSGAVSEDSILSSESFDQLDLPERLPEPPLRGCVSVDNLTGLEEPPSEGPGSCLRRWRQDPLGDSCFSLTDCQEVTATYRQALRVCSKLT
Procedure: as §1

PIP4K2A = PIP4K2A (Homo sapiens (Human), UniProt P48426)
Procedure: as §1

RSK1 domain2 = RSK1 domain2 (Homo sapiens (Human), UniProt Q15418)
Procedure: as §1

MASTL = MASTL (Homo sapiens (Human), UniProt Q96GX5)
Procedure: as §1

CDK5 = CDK5 (Homo sapiens (Human), UniProt Q00535)
CDK5, sequence (Q00535 whole entry): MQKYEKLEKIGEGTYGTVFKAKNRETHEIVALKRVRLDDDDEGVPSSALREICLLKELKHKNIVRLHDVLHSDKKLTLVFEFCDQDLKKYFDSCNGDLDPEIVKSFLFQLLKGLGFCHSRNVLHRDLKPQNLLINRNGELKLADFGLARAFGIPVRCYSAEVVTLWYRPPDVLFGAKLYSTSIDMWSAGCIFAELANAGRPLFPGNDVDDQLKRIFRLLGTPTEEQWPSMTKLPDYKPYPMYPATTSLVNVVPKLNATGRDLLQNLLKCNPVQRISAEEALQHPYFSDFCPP
Procedure: as §1

CDK2 = CDK2 (Homo sapiens (Human), UniProt P24941)
Procedure: as §1

PIK3C3 = PIK3C3 (Homo sapiens (Human), UniProt Q8NEB9)
Procedure: as §1

JAK1 domain1 = JAK1 domain1 (Homo sapiens (Human), UniProt P23458)
Procedure: as §1

ACK = ACK (Homo sapiens (Human), UniProt Q07912)
Procedure: as §1

SRPK2 = SRPK2 (Homo sapiens (Human), UniProt P78362)
Procedure: as §1

[1] = range class, read-out: % inhibition

HPK1, sequence (Q92918 whole entry): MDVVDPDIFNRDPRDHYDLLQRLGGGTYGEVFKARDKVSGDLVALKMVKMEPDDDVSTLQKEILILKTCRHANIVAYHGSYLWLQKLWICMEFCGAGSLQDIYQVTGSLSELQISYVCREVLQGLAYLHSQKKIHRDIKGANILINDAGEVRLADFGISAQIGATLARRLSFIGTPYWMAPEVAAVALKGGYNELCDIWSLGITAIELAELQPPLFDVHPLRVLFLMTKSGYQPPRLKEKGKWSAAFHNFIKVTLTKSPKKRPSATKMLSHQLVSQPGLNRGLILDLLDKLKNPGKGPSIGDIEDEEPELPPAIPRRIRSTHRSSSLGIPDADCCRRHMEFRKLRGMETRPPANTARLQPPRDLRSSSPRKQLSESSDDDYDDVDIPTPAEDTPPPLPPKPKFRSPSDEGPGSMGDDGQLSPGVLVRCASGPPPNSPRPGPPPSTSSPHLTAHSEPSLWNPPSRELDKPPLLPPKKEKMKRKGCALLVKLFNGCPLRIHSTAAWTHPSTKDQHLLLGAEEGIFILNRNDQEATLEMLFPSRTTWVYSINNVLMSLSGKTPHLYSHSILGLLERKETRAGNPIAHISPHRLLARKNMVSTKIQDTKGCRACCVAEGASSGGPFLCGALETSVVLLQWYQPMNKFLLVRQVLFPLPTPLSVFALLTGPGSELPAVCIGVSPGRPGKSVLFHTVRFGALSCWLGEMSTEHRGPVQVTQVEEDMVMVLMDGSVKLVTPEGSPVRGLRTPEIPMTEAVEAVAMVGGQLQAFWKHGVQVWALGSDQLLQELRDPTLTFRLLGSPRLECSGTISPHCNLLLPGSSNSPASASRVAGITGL

## Nc1ncc(-c2ccc(NS(=O)(=O)C3CC3)cc2F)cc1-c1ccc2c(c1)CCNC2=O [Compound I-51, N-(4-(6-amino-5-(1-oxo-1,2,3,4-tetrahydroisoquinolin-6-yl)pyridin-3-yl)-3-fluorophenyl) cyclopropanesulfonamide]
HPK1; [1]
  inhibition at 10 µM: 75 to 90%
HPK1; read-out: inhibition (10 μM)
  inhibition at 10 µM: 83.5%
SNRK; [1]
  inhibition at 10 µM: 0%
SNRK; read-out: inhibition (10 μM)
  inhibition at 10 µM: -26.2%
CK1a; [1]
  inhibition at 10 µM: 0%
CK1a; read-out: inhibition (10 μM)
  inhibition at 10 µM: -34.7%
PKD2; [1]
  inhibition at 10 µM: 50 to 75%
PKD2; read-out: inhibition (10 μM)
  inhibition at 10 µM: 73.2%
CDK11, CDK8; 10 μM, range class
  % inhibition: 0.0%
CDK11, CDK8
  inhibition (10 μM): 31.8%
RSK2 domain1; [1]
  inhibition at 10 µM: 35 to 40%
RSK2 domain1; read-out: inhibition (10 μM)
  inhibition at 10 µM: 49.9%
MAP2K6; [1]
  inhibition at 10 µM: 0%
MAP2K6; read-out: inhibition (10 μM)
  inhibition at 10 µM: -3.5%
ILK; [1]
  inhibition at 10 µM: 0%
ILK; read-out: inhibition (10 μM)
  inhibition at 10 µM: -31.3%
MPSK1; [1]
  inhibition at 10 µM: 35 to 40%
MPSK1; read-out: inhibition (10 μM)
  inhibition at 10 µM: 43.9%
NEK7; [1]
  inhibition at 10 µM: 0%
NEK7; read-out: inhibition (10 μM)
  inhibition at 10 µM: -50.3%
CaMK2d; [1]
  inhibition at 10 µM: 0%
CaMK2d; read-out: inhibition (10 μM)
  inhibition at 10 µM: 2.3%
PLK1; [1]
  inhibition at 10 µM: 0%
PLK1; read-out: inhibition (10 μM)
  inhibition at 10 µM: -20.6%
EphB2; [1]
  inhibition at 10 µM: 0%
EphB2; read-out: inhibition (10 μM)
  inhibition at 10 µM: 8.8%
NEK4; [1]
  inhibition at 10 µM: 0%
NEK4; read-out: inhibition (10 μM)
  inhibition at 10 µM: 25.8%
PEK; [1]
  inhibition at 10 µM: 0%
PEK; read-out: inhibition (10 μM)
  inhibition at 10 µM: -16.3%
MST4; 10 μM, range class
  % inhibition: 0.0%
MST4
  inhibition (10 μM): 33.9%
STLK5; [1]
  inhibition at 10 µM: 0%
STLK5; read-out: inhibition (10 μM)
  inhibition at 10 µM: -17.1%
PRPK; [1]
  inhibition at 10 µM: 0%
PRPK; read-out: inhibition (10 μM)
  inhibition at 10 µM: -47.4%
p38d, p38g; 10 μM, range class
  % inhibition: 0.0%
p38d, p38g
  inhibition (10 μM): 2.3%
RSK1 domain1; [1]
  inhibition at 10 µM: 0%
RSK1 domain1; read-out: inhibition (10 μM)
  inhibition at 10 µM: 5.4%
MAP2K3; [1]
  inhibition at 10 µM: 0%
MAP2K3; read-out: inhibition (10 μM)
  inhibition at 10 µM: 0.9%
GCN2 domain2; [1]
  inhibition at 10 µM: 0%
GCN2 domain2; read-out: inhibition (10 μM)
  inhibition at 10 µM: -5.1%
TLK2; [1]
  inhibition at 10 µM: 0%
TLK2; read-out: inhibition (10 μM)
  inhibition at 10 µM: -20.1%
NuaK2; [1]
  inhibition at 10 µM: 35 to 40%
NuaK2; read-out: inhibition (10 μM)
  inhibition at 10 µM: 45.1%
PIP4K2A; [1]
  inhibition at 10 µM: 0%
PIP4K2A; read-out: inhibition (10 μM)
  inhibition at 10 µM: -16.5%
RSK1 domain2; [1]
  inhibition at 10 µM: 0%
RSK1 domain2; read-out: inhibition (10 μM)
  inhibition at 10 µM: 11%
MASTL; [1]
  inhibition at 10 µM: 0%
MASTL; read-out: inhibition (10 μM)
  inhibition at 10 µM: 14.6%
CDK5; [1]
  inhibition at 10 µM: 35 to 40%
CDK5; read-out: inhibition (10 μM)
  inhibition at 10 µM: 37.2%
CDK2; [1]
  inhibition at 10 µM: 35 to 40%
CDK2; read-out: inhibition (10 μM)
  inhibition at 10 µM: 35%
PIK3C3; [1]
  inhibition at 10 µM: 0%
PIK3C3; read-out: inhibition (10 μM)
  inhibition at 10 µM: -13.2%
JAK1 domain1; [1]
  inhibition at 10 µM: 0%
JAK1 domain1; read-out: inhibition (10 μM)
  inhibition at 10 µM: -8.2%
ACK; [1]
  inhibition at 10 µM: 0%
ACK; read-out: inhibition (10 μM)
  inhibition at 10 µM: -39%
SRPK2; [1]
  inhibition at 10 µM: 0%
SRPK2; read-out: inhibition (10 μM)
  inhibition at 10 µM: -41%

— US10710978B2, “STK4 inhibitors for treatment of hematologic malignancies” (Dana-Farber Cancer Institute, Inc., priority 2015, dated 2020)
